Reference: publication PMC10447463, “Data-mining unveils structure–property–activity correlation of viral infectivity enhancing self-assembling peptides” (Nature Communications, 2023)
Like-named read-outs stand apart in the source and are kept apart here.

Experiments:
[1] = type: physicochemical; details: for ThT Cat. / ThT-Fluorescence (categorical): ThT-active if fluorescence at least twice the control
In short: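 Fibrils (1 mg/mL solution) were mixed with 50 µM ThT in PBS for 15 min at RT, and fluorescence was read at λex 440/λem 488 nm against a PBS blank, as a triplicate mean ± SD. Zeta potential came from electrophoretic mobility (Smoluchowski) after 1 d aggregation at 1 mg/mL in PBS pH 7.4, diluted into 1 mM KCl.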

[2] = type: physicochemical; parameters: key to Fibril / Fibril Formation / TEM 2cat / Fibril: 1 = fibrils present; 0 non-fibrillar structures; details: for Fibril / Fibril Formation: TEM, 1 mg/mL, uranyl acetate stain, qualitative
[3] = ThT fluorescence relative to blank, blank = 42.1851851851852
[4] = relative to blank 42.1851851851852 a.u.
[5] = ThT fluorescence relative to blank (42.1851851851852 a.u.)

Substance | Tht category (> 1.5 to blank = +) ([1]; category 1/0) | Tht rel to blank (42.1851851851852) [1, 4] | TEM: 1= fibrils, 0= aggregates (micelle), 0.5 = aggregates and fibrils, -1 = nothing obersved, STD prep [2] | ThT Cat. / ThT-Fluorescence (categorical) [1] | Fibril / Fibril Formation [2] | further results
KIKIQIW [TM69] | 1 (ThT. Cat is 1, if Rel. ThT >2) | 2.047 | 1 | – | – | Tht rel to blank (42.1851851851852) [1, 3]: 2.047
KIKIQIAMWQ [JR4] | – | – | – | – | – | Tht category (> 1.5 to blank = +) ([1]; FigS26): 1 (Tht category (> 1.5 to blank = +)); TEM: 1= fibrils, 0= aggregates (micelle), 0.5 = aggregates and fibrils, -1 = nothing obersved, STD prep ([2]; FigS26): 1
IIIK [reference compound] | – | – | – | 0 (ThT-inactive (N-Fold <2)) | 0 | –
KIKIQINMWWQ [VH11] | 0 (ThT-inactive (N-Fold <2)) | 1.314 | 0.5 | – | – | –
VHDCVNITIK [reference compound] | – | – | – | 1 (ThT. Cat is 1, if Rel. ThT >2) | 1 | –
CRLSLSLS | – | – | – | 0 (ThT-inactive (N-Fold <2)) | 1 | –
KIKIQIMQWN [VH16] | – | – | – | – | – | Tht category (> 1.5 to blank = +) ([1]; FigS26): 0 (Tht category (> 1.5 to blank = +)); TEM: 1= fibrils, 0= aggregates (micelle), 0.5 = aggregates and fibrils, -1 = nothing obersved, STD prep ([2]; FigS26): 1
CKIWIQIY | – | – | – | 1 (ThT. Cat is 1, if Rel. ThT >2) | 1 | –
KFKQFFINMWQ [VH14] | 0 (ThT-inactive (N-Fold <2)) | – | 0 | – | – | Tht rel to blank (42.1851851851852) [1, 3]: 1.085
KIKIKIKIWWWW [TM12] | 1 (ThT. Cat is 1, if Rel. ThT >2) | 2.303 | 0 | – | – | –
KIKIKIKIWW [TM21] | 1 (ThT. Cat is 1, if Rel. ThT >2) | 3.538 | 0 | – | – | –
KFKFQFF [TG6] | 1 (ThT. Cat is 1, if Rel. ThT >2) | 2.58 | 1 | – | – | Tht rel to blank (42.1851851851852) [1, 5]: 2.58; Tht rel to blank (42.1851851851852) [1, 3]: 2.58
KVKVQVV [TG2] | 0 (ThT-inactive (N-Fold <2)) | – | 0.5 | – | – | Tht rel to blank (42.1851851851852) [1, 5]: 1.263; Tht rel to blank (42.1851851851852) [1, 3]: 1.263
KIKIQIMWNQ [VH15] | – | – | – | – | – | Tht category (> 1.5 to blank = +) ([1]; FigS26): 0 (Tht category (> 1.5 to blank = +)); TEM: 1= fibrils, 0= aggregates (micelle), 0.5 = aggregates and fibrils, -1 = nothing obersved, STD prep ([2]; FigS26): 1
RGDKIKIQINMWQ [MG9a] | 0 (ThT-inactive (N-Fold <2)) | 1.781 | 0.5 | – | – | Tht category (> 1.5 to blank = +) ([1]; FigS26): 0 (Tht category (> 1.5 to blank = +)); Tht rel to blank (42.1851851851852) [1, 5]: 1.781
KLVFFAK [reference compound] | – | – | – | 0 (ThT-inactive (N-Fold <2)) | 1 | –
RIRFHIW | – | – | – | 0 (ThT-inactive (N-Fold <2)) | 0 | –
KFKFQFFF [TG12] | 1 (ThT. Cat is 1, if Rel. ThT >2) | 2.58 | 1 | – | – | Tht rel to blank (42.1851851851852) [1, 5]: 2.58; Tht rel to blank (42.1851851851852) [1, 3]: 2.58
NMWQKIKIQI [JG9] | – | – | – | – | – | Tht category (> 1.5 to blank = +) ([1]; FigS26): 1 (Tht category (> 1.5 to blank = +)); TEM: 1= fibrils, 0= aggregates (micelle), 0.5 = aggregates and fibrils, -1 = nothing obersved, STD prep ([2]; FigS26): 1
MKVIFLKDVKG [reference compound] | – | – | – | 0 (ThT-inactive (N-Fold <2)) | 1 | –
KIKIQIRGD [MG6] | – | – | – | – | – | Tht category (> 1.5 to blank = +) ([1]; FigS26): 1 (Tht category (> 1.5 to blank = +)); TEM: 1= fibrils, 0= aggregates (micelle), 0.5 = aggregates and fibrils, -1 = nothing obersved, STD prep ([2]; FigS26): 1
KFKFQFN [BL7] | 0 (ThT-inactive (N-Fold <2)) | 1.056 | 1 | – | – | –
